Measurements as given in BindingDB's records for patent US20230364079 (Chengdu Hyperway Pharmaceuticals, 2023).

Target: Tyrosine-protein kinase BTK (Homo sapiens, UniProt Q06187)
Assay: BTK Kinase Activity Inhibition Test in Vitro

Sequence of Tyrosine-protein kinase BTK (Q06187 whole entry): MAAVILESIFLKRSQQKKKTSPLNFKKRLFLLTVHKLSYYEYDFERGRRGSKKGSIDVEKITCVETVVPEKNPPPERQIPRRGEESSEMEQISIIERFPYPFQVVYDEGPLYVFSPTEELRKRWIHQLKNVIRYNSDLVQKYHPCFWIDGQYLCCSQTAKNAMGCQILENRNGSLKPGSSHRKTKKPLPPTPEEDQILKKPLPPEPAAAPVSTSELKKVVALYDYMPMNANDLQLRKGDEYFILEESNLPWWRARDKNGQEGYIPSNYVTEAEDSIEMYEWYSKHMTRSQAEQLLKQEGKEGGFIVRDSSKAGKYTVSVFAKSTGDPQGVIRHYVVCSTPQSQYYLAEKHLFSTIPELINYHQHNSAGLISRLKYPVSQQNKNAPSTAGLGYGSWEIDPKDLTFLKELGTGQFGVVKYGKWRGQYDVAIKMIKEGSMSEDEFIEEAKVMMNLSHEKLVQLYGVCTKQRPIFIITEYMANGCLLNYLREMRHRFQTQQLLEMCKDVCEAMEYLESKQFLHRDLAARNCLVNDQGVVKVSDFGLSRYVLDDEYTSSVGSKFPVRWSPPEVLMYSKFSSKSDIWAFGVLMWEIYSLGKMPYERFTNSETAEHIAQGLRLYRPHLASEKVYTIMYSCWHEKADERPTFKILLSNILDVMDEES

Compound	IC50 [nM]
Nc1nccn2c(C3CCC(CO)OC3)nc(-c3ccc(Oc4cccc(OC(F)(F)F)c4F)cc3)c12 (stereo unspecified) [US20230364079, Example 6]	< 5
Nc1nccn2c(C3CCC(CO)OC3)nc(-c3ccc(Oc4cccc(Cl)c4F)cc3)c12 (stereo unspecified) [US20230364079, Example 9]	< 5
COc1cccc(Oc2ccc(-c3nc(C4CCC(CO)OC4)n4c(Cl)cnc(N)c34)c(F)c2)c1F (stereo unspecified) [US20230364079, Example 11]	< 5
COc1cccc(Oc2ccc(-c3nc(C4CCC(CO)OC4)n4c(Cl)cnc(N)c34)cc2)c1F (stereo unspecified) [US20230364079, Example 12]	< 5
Nc1nccn2c(C3CCC(CO)OC3)nc(-c3ccc(Oc4cccc(OC(F)(F)F)c4F)cc3F)c12 (stereo unspecified) [US20230364079, Example 13]	< 5
Nc1ncc(Cl)n2c(C3CCC(CO)OC3)nc(-c3ccc(Oc4cccc(OC(F)(F)F)c4F)cc3)c12 (stereo unspecified) [US20230364079, Example 14]	< 5
